Common to all, as to format: biochemical
One assay addresses JAK3 (Homo sapiens (Human), UniProt P52333). Kind of assay: IC50 against JAK3.
A further assay deals with ITK (Homo sapiens (Human), UniProt Q08881). Description: IC50 against ITK.
For a further assay, the target named is BTK (Homo sapiens (Human), UniProt Q06187). Description: IC50 against BTK.
For another assay, the target named is TXK (Homo sapiens (Human), UniProt P42681). Description: IC50 against TXK. As to conditions: for TXK/ITK: ratio of TXK IC50 to ITK IC50.

This is an account of results in patent US11008314B2, “Compounds and methods for modulating interleukin-2-inducible t-cell kinase” (CORVUS PHARMACEUTICALS, INC., priority 2016, dated 2021).

Chain of TXK (P42681 whole entry, species assumed): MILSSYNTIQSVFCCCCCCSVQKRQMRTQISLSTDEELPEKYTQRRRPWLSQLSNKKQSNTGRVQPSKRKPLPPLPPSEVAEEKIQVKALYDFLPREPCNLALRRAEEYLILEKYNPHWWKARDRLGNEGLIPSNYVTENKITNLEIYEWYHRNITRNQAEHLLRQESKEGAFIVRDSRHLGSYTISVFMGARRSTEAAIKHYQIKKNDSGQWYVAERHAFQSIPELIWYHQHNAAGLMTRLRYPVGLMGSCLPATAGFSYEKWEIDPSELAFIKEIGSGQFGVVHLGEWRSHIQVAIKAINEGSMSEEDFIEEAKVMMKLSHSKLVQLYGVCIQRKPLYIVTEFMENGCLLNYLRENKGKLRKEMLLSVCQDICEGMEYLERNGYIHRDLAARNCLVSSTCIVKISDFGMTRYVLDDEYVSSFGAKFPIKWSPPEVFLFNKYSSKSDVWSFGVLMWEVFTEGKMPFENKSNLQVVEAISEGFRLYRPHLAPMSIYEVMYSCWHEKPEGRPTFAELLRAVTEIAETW
Chain of JAK3 (P52333 whole entry, species assumed): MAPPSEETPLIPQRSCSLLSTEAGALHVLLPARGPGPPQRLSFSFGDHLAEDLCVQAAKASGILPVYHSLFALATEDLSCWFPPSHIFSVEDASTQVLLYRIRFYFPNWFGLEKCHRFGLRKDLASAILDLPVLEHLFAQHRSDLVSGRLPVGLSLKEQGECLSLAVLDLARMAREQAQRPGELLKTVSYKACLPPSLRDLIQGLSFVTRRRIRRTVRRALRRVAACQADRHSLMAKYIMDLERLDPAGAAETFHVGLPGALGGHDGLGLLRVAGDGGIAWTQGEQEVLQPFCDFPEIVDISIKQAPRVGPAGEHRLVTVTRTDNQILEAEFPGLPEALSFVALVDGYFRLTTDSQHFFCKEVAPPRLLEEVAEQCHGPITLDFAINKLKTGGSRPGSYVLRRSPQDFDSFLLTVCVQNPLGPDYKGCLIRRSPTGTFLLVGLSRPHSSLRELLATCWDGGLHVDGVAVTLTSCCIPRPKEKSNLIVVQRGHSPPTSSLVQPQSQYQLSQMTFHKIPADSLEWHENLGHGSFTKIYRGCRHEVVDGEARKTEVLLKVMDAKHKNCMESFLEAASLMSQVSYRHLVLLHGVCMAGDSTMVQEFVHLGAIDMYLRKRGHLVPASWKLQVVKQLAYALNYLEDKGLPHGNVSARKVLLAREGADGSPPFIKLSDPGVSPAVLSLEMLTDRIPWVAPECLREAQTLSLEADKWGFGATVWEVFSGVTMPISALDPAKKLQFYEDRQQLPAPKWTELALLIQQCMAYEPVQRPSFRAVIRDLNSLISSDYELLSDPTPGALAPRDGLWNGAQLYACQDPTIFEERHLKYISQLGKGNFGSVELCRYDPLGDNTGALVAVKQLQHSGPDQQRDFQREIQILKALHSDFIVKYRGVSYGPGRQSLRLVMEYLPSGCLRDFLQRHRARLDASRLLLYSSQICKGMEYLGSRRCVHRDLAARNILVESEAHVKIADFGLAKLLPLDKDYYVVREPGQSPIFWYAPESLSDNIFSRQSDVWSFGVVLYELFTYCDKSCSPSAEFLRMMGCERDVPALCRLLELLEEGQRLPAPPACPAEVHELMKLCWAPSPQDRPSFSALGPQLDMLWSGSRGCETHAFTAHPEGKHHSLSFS
Chain of ITK (Q08881 whole entry): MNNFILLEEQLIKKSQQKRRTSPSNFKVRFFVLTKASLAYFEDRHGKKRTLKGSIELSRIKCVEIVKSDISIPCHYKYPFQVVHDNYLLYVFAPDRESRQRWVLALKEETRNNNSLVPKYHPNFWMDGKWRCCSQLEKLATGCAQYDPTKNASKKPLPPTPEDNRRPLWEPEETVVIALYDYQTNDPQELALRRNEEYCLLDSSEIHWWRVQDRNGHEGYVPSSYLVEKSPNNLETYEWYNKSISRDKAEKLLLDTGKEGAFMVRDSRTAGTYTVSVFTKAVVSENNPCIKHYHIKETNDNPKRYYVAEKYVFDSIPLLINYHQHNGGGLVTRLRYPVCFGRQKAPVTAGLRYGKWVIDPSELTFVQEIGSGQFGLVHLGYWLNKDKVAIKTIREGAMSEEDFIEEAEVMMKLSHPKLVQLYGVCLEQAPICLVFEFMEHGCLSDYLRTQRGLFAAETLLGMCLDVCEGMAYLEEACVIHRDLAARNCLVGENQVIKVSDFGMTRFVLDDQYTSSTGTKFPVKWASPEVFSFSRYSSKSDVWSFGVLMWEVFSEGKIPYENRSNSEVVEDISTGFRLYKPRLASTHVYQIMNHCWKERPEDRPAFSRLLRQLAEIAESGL
Chain of BTK (Q06187 whole entry, species assumed): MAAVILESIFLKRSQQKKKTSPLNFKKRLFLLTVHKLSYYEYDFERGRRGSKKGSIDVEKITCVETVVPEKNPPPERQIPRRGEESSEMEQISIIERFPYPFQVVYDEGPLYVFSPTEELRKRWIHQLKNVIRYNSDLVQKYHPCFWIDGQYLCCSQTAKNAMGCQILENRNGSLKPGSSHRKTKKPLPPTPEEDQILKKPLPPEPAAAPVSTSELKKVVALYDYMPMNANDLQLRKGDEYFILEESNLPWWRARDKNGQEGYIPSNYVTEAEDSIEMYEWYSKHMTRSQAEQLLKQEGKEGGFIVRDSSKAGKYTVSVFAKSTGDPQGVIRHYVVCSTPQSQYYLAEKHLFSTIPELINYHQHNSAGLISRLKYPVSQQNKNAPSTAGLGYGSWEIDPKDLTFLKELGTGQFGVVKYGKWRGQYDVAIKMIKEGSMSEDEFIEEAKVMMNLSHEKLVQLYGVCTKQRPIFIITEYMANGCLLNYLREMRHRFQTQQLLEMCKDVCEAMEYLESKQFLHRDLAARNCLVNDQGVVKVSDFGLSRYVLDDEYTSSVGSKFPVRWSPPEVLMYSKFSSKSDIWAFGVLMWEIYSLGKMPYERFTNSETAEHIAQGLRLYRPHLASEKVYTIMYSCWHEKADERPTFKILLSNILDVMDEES

With `C=CC(=O)N1CCC2(C1)CN(C(=O)c1cc(Sc3cnc(Nc4ccccn4)s3)c(C)cc1OC)C2` [Compound 152, 1-(2-(2-methoxy-4-methyl-5-((2-(pyridin-2-ylamino)thiazol-5-yl)thio)benzoyl)-2,6-diazaspiro[3.4]octan-6-yl)prop-2-en-1-one], the IC50 against JAK3 was 100 to 1000 nM; against ITK it was less than 10 nM; at BTK it was 10 to 100 nM; against TXK, less than 10 nM. Moreover, the TXK/ITK on TXK turned out to be 2.06.

Consider `C=CC(=O)N1CCCN(C(=O)c2cc(Sc3cnc(NC(=O)c4cnsc4)s3)c(C)cc2OC)C[C@H]1CC` [Compound 121], for which the IC50 is 1000 to 10000 nM at JAK3, less than 10 nM on ITK, 100 to 1000 nM on BTK and 100 to 1000 nM against TXK. Moreover, on TXK, the TXK/ITK amounted to 146.1.

On to `C=CC(=O)N1CCN(C(=O)c2cc(Sc3cnc(Nc4ccc(CN(C)C)cn4)s3)c(C)cc2OC)CC1` [Compound 134], for which the IC50 against JAK3 was 10 to 100 nM; on ITK, less than 10 nM; against BTK it was less than 10 nM; against TXK, less than 10 nM.

Turning to `C=CC(=O)N1CCN(C(=O)c2cc(Sc3cnc(NC(=O)C4CC4)s3)c(C)cc2OC)C(C)(C)C1` [Compound 15], the IC50 is 10 to 100 nM against JAK3, less than 10 nM at ITK, less than 10 nM against BTK and less than 10 nM at TXK. Also, the TXK/ITK on TXK is reported as 1.1111.

As to `C=CC(=O)N1CCN(C(=O)c2cc(Sc3cnc(NC(=O)c4ccsc4)s3)c(C)cc2C)C[C@H]1CC` [Compound 130], the IC50 against JAK3 was 100 to 1000 nM; against ITK it was less than 10 nM; against BTK, 100 to 1000 nM; on TXK it was 10 to 100 nM. The TXK/ITK at TXK is recorded as 7.0.

As for `C=CC(=O)N1CCN(C(=O)c2cc(Sc3cnc(NC(=O)c4ccsc4)s3)c(C)cc2OC)CC1(C)C` [Compound 141, N-(5-((5-(4-acryloyl-3,3-dimethylpiperazine-1-carbonyl)-4-methoxy-2-methylphenyl)thio)thiazol-2-yl)thiophene-3-carboxamide], the IC50 against JAK3 is 100 to 1000 nM; against ITK, less than 10 nM; against BTK, 10 to 100 nM; on TXK it was 10 to 100 nM. The TXK/ITK on TXK was found to be 14.70.

Take `C=CC(=O)N1CCN(C(=O)c2cc(Sc3cnc(NC(=O)c4nccn4C)s3)c(C)cc2OC)CC1` [Compound 96]: the IC50 against JAK3 was 100 to 1000 nM; on ITK, less than 10 nM; on BTK, 100 to 1000 nM; on TXK, 10 to 100 nM. The TXK/ITK on TXK was found to be 11.966.

Turning to `C=CC(=O)N1CCN(C(=O)c2cc(Sc3cnc(NC(=O)C4CC4)s3)c(C)cc2C(F)(F)F)CC1` [Compound 68], the IC50 on JAK3 was 1000 to 10000 nM; at ITK, 10 to 100 nM; on BTK it was no less than 10000 nM; on TXK, 100 to 1000 nM. In addition, the TXK/ITK on TXK is listed as 3.6548.

In the case of `C=CC(=O)N1CCN(C(=O)c2cc(Sc3cnc(NC(=O)c4cnn(C)c4)s3)c(C)cc2OC)C[C@H]1CC` [Compound 115], the 50% inhibitory concentration (IC50) against JAK3 is 1000 to 10000 nM; on ITK, less than 10 nM; at BTK it was 100 to 1000 nM; against TXK, 10 to 100 nM. Besides, the TXK/ITK at TXK amounted to 9.8.

As for `C=CC(=O)N1CCCN(C(=O)c2cc(Sc3cnc(NC(=O)C(C)C)s3)c(C)cc2OC)CC1` [Compound 36], the IC50 is no less than 10000 nM at JAK3, 10 to 100 nM against ITK, 1000 to 10000 nM against BTK and 1000 to 10000 nM at TXK. For the same compound, the TXK/ITK on TXK is recorded as 72.34.

In the case of `C=CC(=O)N1CCN(C(=O)c2cc(Sc3cnc(NC(=O)C4CC4)s3)c(C)cc2CC)CC1` [Compound 106], the IC50 on JAK3 was 10 to 100 nM; on ITK, less than 10 nM; at BTK, 10 to 100 nM; on TXK, less than 10 nM. For the same compound, the TXK/ITK at TXK worked out at 2.9.

Turning to `C=CC(=O)N1CCCN(C(=O)c2cc(Sc3cnc(NC(=O)C4CC4)s3)c(C)cc2C)CC1` [Compound 74], the IC50 on JAK3 is 100 to 1000 nM; against ITK, less than 10 nM; against BTK, 100 to 1000 nM; against TXK it was 100 to 1000 nM. Besides, the TXK/ITK at TXK came out at 16.033.

As for `C=CC(=O)N1CC[C@H](N(C)C(=O)c2cc(Sc3cnc(NC(C)=O)s3)c(C)cc2OC)C1` [Compound 30], the IC50 at JAK3 was 1000 to 10000 nM; at ITK, 10 to 100 nM; at BTK, 100 to 1000 nM; against TXK it was 10 to 100 nM. In addition, the TXK/ITK at TXK is on record as 3.101.

As to `C=CC(=O)N1CCN(C(=O)c2cc(Sc3cnc(NC(=O)c4ccsc4)s3)c(C)cc2OC)C[C@H]1CC` [Compound 113], the IC50 against JAK3 was 100 to 1000 nM; at ITK it was less than 10 nM; on BTK it was 10 to 100 nM; against TXK, 10 to 100 nM. Besides, the TXK/ITK at TXK was 12.1.

For `C=CC(=O)N1C[C@H]2CC[C@@H](C1)N2C(=O)c1cc(Sc2cnc(NC(C)=O)s2)c(C)cc1OC` [Compound 7], the IC50 was 10 to 100 nM against JAK3, less than 10 nM on ITK, 10 to 100 nM on BTK and 10 to 100 nM against TXK. Moreover, at TXK, the TXK/ITK came to 11.993.

As to `C=CC(=O)N1CCCN(C(=O)c2cc(Sc3cnc(NC(=O)c4ccsc4)s3)c(C)cc2OC)C[C@H]1CC` [Compound 120], the IC50 is 1000 to 10000 nM at JAK3, less than 10 nM against ITK, 100 to 1000 nM on BTK and 100 to 1000 nM against TXK. Further, the TXK/ITK at TXK is 66.4.

`C=CC(=O)N1CCN(C(=O)c2cc(Sc3cnc(NC(=O)C4CC4)s3)c(C)cc2OC)C[C@H]1C#N` [Compound 43]: the IC50 against JAK3 was 10 to 100 nM; against ITK it was less than 10 nM; at BTK, 10 to 100 nM; at TXK, less than 10 nM. The TXK/ITK at TXK is 3.4821.

In the case of `C=CC(=O)N1CCCN(C(=O)c2cc(Sc3cnc(NC(=O)c4cccc(CN[C@H](C)C(C)(C)C)c4)s3)c(C)cc2OC)CC1` [Compound 56], the 50% inhibitory concentration (IC50) against JAK3 was 1000 to 10000 nM; against ITK, less than 10 nM; against BTK, 100 to 1000 nM; at TXK it was 1000 to 10000 nM. Also, at TXK, the TXK/ITK stood at 168.17.

Regarding `C=CC(=O)N1CCN(C(=O)c2cc(Sc3cnc(NC(=O)C4CC4)s3)c(C)cc2OC)CC(F)C1` (stereo not drawn) [Compound 55], the IC50 against JAK3 is 10 to 100 nM; on ITK it was less than 10 nM; on BTK it was 10 to 100 nM; at TXK, less than 10 nM. For the same compound, the TXK/ITK on TXK is reported as 6.2416.

Take `C=CC(=O)N1CCCN(C(=O)c2cc(Sc3cnc(NC(=O)C4CC4)s3)c(C)cc2F)C[C@H]1C` [Compound 60]: the IC50 on JAK3 was no less than 10000 nM; against ITK, 10 to 100 nM; against BTK, no less than 10000 nM; at TXK, 1000 to 10000 nM. For the same compound, the TXK/ITK at TXK worked out at 21.785.

Turning to `C=CC(=O)N1CCN(C(=O)c2cc(Sc3cnc(NC(=O)c4cccc(CN(C)C)c4)s3)c(C)cc2C)C[C@H]1C#N` [Compound 125], the IC50 is less than 10 nM on JAK3, less than 10 nM against ITK, 10 to 100 nM on BTK and less than 10 nM at TXK. Also, on TXK, the TXK/ITK is 2.3.

Turning to `C=CC(=O)N1CC2(CCN(C(=O)c3cc(Sc4cnc(NC(=O)C5CC5)s4)c(C)cc3OC)C2)C1` [Compound 45], the IC50 at JAK3 is 10 to 100 nM; on ITK it was less than 10 nM; on BTK, 10 to 100 nM; on TXK it was less than 10 nM. Further, the TXK/ITK at TXK was 4.1551.

Consider `C=CC(=O)N1CCN(C(=O)c2cc(Sc3cnc(NC(=O)C4CCCC4)s3)c(C)cc2OC)CC1` [Compound 31], for which the IC50 on JAK3 was in the range of 1000 to 10000 nM; at ITK it was 10 to 100 nM; at BTK, 1000 to 10000 nM; against TXK, 100 to 1000 nM. The TXK/ITK at TXK worked out at 19.291.

In the case of `C=CC(=O)N1[C@@H]2CC[C@H]1CN(C(=O)c1cc(Sc3cnc(Nc4ccccn4)s3)c(C)cc1OC)C2` [Compound 150, 1-((1R, 5S)-3-(2-methoxy-4-methyl-5-((2-(pyridin-2-ylamino)thiazol-5-yl)thio)benzoyl)-3,8-diazabicyclo[3.2.1]octan-8-yl)prop-2-en-1-one], the IC50 was 10 to 100 nM against JAK3, less than 10 nM against ITK, less than 10 nM at BTK and less than 10 nM against TXK. For the same compound, on TXK, the TXK/ITK came to 1.76.

`C=CC(=O)N1CCCN(C(=O)c2cc(Sc3cnc(NC(=O)C4CC4)s3)c(C)cc2C(F)(F)F)C[C@H]1C` [Compound 70]: the IC50 at JAK3 is no less than 10000 nM; against ITK it was 10 to 100 nM; against BTK, no less than 10000 nM; against TXK it was 1000 to 10000 nM. Also, the TXK/ITK on TXK stood at 35.68.

On to `C=CC(=O)N1CCN(C(=O)c2cc(Sc3cnc(NC(=O)c4cnsc4)s3)c(C)cc2C)C[C@H]1CC` [Compound 131], for which the IC50 against JAK3 is 100 to 1000 nM; on ITK, less than 10 nM; on BTK, 100 to 1000 nM; against TXK, 10 to 100 nM. For the same compound, the TXK/ITK at TXK stood at 11.0.

Regarding `C=CC(=O)N1CCN(C(=O)c2cc(Sc3cnc(NC(C)=O)s3)c(C)cc2OC)C[C@H]1C` [Compound 11], the IC50 is 1000 to 10000 nM against JAK3, less than 10 nM on ITK, 1000 to 10000 nM at BTK and 100 to 1000 nM at TXK. The TXK/ITK at TXK was found to be 25.051.

With `C=CC(=O)N1CCN(C(=O)c2cc(Sc3cnc(NC(=O)C4CC4)s3)c(F)cc2C)C[C@H]1C` [Compound 82], the IC50 against JAK3 was 100 to 1000 nM; against ITK, 10 to 100 nM; against BTK, no less than 10000 nM; at TXK, 100 to 1000 nM. The TXK/ITK on TXK is reported as 9.2468.

In the case of `C=CC(=O)N1CCN(C(=O)c2cc(Sc3cnc(Nc4ccccn4)s3)c(C)cc2OC)[C@@H](C)C1` [Compound 151, (S)-1-(4-(2-methoxy-4-methyl-5-((2-(pyridin-2-ylamino)thiazol-5-yl)thio)benzoyl)-3-methylpiperazin-1-yl)prop-2-en-1-one], the IC50 on JAK3 is 10 to 100 nM; at ITK, less than 10 nM; against BTK it was 10 to 100 nM; at TXK it was less than 10 nM. Moreover, the TXK/ITK on TXK is 6.43.

As a reminder, the IC50 is the concentration that gives 50% inhibition.
